Tests used:
[1] = test system: ovarian cancer cells (PA-1); test: MTT cytotoxicity assay, ovarian cancer cells; assay type: cell-based; parameters: key: —: Not active; =PT: Activity equivalent to Paclitaxel; <PT: Activity less than Paclitaxel; conditions: PA-1 ovarian cancer cells, 24 to 96 hours, potency over paclitaxel
Procedure: (§1) In vitro cytotoxic activity of novel paclitaxel derivatives was determined by performing the MTT cytotoxicity assay (Mosmann T., J Immunological Methods, 65:55; 1983). Briefly, the cultured tumor cells were separately seeded in a 96-well culture plate and co-incubated with paclitaxel or its derivatives dissolved in methanol, dimethyl formamide, dimethyl sulfoxide or isopropyl alcohol with relevant controls at 37° C. in a CO2 incubator. After 24 to 96 hours, the assay was terminated and percent cyotoxicities calculated.

lung cancer cells (L132) = test: MTT cytotoxicity assay, lung cancer cells; assay type: cell-based; parameters: key: —: Not active; =PT: Activity equivalent to Paclitaxel; <PT: Activity less than Paclitaxel; conditions: 24 to 96 hours, potency over paclitaxel
Procedure: as §1

[2] = test system: cervical cancer cells (SiHa); test: MTT cytotoxicity assay, cervical cancer cells; assay type: cell-based; parameters: key: —: Not active; =PT: Activity equivalent to Paclitaxel; <PT: Activity less than Paclitaxel; conditions: 24 to 96 hours, potency over paclitaxel
Procedure: as §1

[3] = test system: breast cancer cells (HBL100); test: MTT cytotoxicity assay, breast cancer cells; assay type: cell-based; parameters: key: —: Not active; =PT: Activity equivalent to Paclitaxel; <PT: Activity less than Paclitaxel; conditions: 24 to 96 hours, potency over paclitaxel
Procedure: as §1

leukemia cells (MOLT-4) = test: MTT cytotoxicity assay, leukemia cells; assay type: cell-based; parameters: key: —: Not active; =PT: Activity equivalent to Paclitaxel; <PT: Activity less than Paclitaxel; conditions: MOLT-4 leukemia cells, 24 to 96 hours, potency over paclitaxel
Procedure: as §1

mice = conditions: cited from earlier work

SMILES | Potency with respect to paclitaxel, PA-1 [1] | Potency with respect to paclitaxel, L132 (lung cancer cells (L132)) | Potency with respect to paclitaxel, SiHa [2] | Potency with respect to paclitaxel, HBL100 [3] | Potency with respect to paclitaxel, MOLT-4 (leukemia cells (MOLT-4)) | toxic dose (mice; administered in the Cremophor vehicle) [mg/kg] | Maximum Tolerated Dose (MTD) (mice; mice, ip administration) [mg/kg]
CC(=O)OC1C(=O)C2(C)C(O)CC3OCC3(OC(C)=O)C2C(OC(=O)c2ccccc2)C2(O)CC(OC(=O)C(OC(=O)CNC(=O)CNC(=O)OC(C)(C)C)C(NC(=O)c3ccccc3)c3ccccc3)C(C)=C1C2(C)C (stereo not drawn) [AV-4S] | 9.5 | 56.3 | — | 3.3 | 13.2 |  | 
CC(=O)OC1C(=O)C2(C)C(O)CC3OCC3(OC(C)=O)C2C(OC(=O)c2ccccc2)C2(O)CC(OC(=O)C(OC(=O)CC(C)(C)C(=O)O)C(NC(=O)c3ccccc3)c3ccccc3)C(C)=C1C2(C)C (stereo not drawn) [AV-82B] | — | — | >25.0 | >170 | — |  | 
CC(=O)OC1C(=O)C2(C)C(O)CC3OCC3(OC(C)=O)C2C(OC(=O)c2ccccc2)C2(O)CC(OC(=O)C(OC(=O)c3cccc(C(F)(F)F)c3)C(NC(=O)c3ccccc3)c3ccccc3)C(C)=C1C2(C)C (stereo not drawn) [AV-86B] | — |  | 2.5 | <PT | — |  | 
CC(=O)OC1C(=O)C2(C)C(O)CC3OCC3(OC(C)=O)C2C(OC(=O)c2ccccc2)C2(O)CC(OC(=O)C(OC(=O)c3ccc(F)cc3F)C(NC(=O)c3ccccc3)c3ccccc3)C(C)=C1C2(C)C (stereo not drawn) [AV-103S] | — | — | 1.4 |  | — |  | 
CC(=O)OC1C(=O)C2(C)C(O)CC3OCC3(OC(C)=O)C2C(OC(=O)c2ccccc2)C2(O)CC(OC(=O)C(OC(=O)c3cccc(F)c3F)C(NC(=O)c3ccccc3)c3ccccc3)C(C)=C1C2(C)C (stereo not drawn) [AV-105S] | — | — | 1.4 | 3.8 | — |  | 
CC(=O)OC1C(=O)C2(C)C(O)CC3OCC3(OC(C)=O)C2C(OC(=O)c2ccccc2)C2(O)CC(OC(=O)C(OC(=O)C(OC(C)=O)c3ccccc3)C(NC(=O)c3ccccc3)c3ccccc3)C(C)=C1C2(C)C (stereo not drawn) [AV-125S] | =PT | — | — | — | — |  | 
CC(=O)OC(C)C(=O)OC1CC2OCC2(OC(C)=O)C2C(OC(=O)c3ccccc3)C3(O)CC(OC(=O)C(OC(=O)OCC(Cl)(Cl)Cl)C(NC(=O)c4ccccc4)c4ccccc4)C(C)=C(C(OC(C)=O)C(=O)C12C)C3(C)C (stereo not drawn) [AV-126S] | =PT | — | — | — | — |  | 
CC(=O)CC(=O)OC(C(=O)OC1CC2(O)C(OC(=O)c3ccccc3)C3C4(OC(C)=O)COC4CC(O)C3(C)C(=O)C(OC(C)=O)C(=C1C)C2(C)C)C(NC(=O)c1ccccc1)c1ccccc1 (stereo not drawn) [AV-147A] | =PT | — | — | — | — |  | 
CC(=O)OC1C(=O)C2(C)C(O)CC3OCC3(OC(C)=O)C2C(OC(=O)c2ccccc2)C2(O)CC(OC(=O)C(OC(=O)CSc3ccccc3)C(NC(=O)c3ccccc3)c3ccccc3)C(C)=C1C2(C)C (stereo not drawn) [AV-150S] | =PT | — | — | — | — |  | 
CC(=O)O[C@H]1C(=O)[C@@]2(C)[C@H]([C@H](OC(=O)c3ccccc3)[C@]3(O)C[C@H](OC(=O)[C@H](O)[C@@H](NC(=O)c4ccccc4)c4ccccc4)C(C)=C1C3(C)C)[C@]1(OC(C)=O)CO[C@@H]1C[C@@H]2O [paclitaxel, Paclitaxel] |  |  |  |  |  | > 30 | 50

Source: US6395771B1, “Paclitaxel derivatives for the treatment of cancer” (Dabur Research Foundation, priority 2000, dated 2002)
